Laboratory results from PubChem BioAssay AID1259407 (Chemical Carcinogenesis Research Information System (CCRIS), 2018).
The source made the active and inactive calls. How the calls were made is not given here.

Test system: CCRIS mutagenicity, Ames/micronucleus/aberration tests
Test: CCRIS mutagenicity studies
[1] = Test System: AMES SALMONELLA TYPHIMURIUM, Strain/Indicator: TA98, Metabolic Activation: NONE, Method: PREINCUBATION
[2] = Test System: AMES SALMONELLA TYPHIMURIUM, Strain/Indicator: TA100, Metabolic Activation: NONE, Method: PREINCUBATION
[3] = Test System: AMES SALMONELLA TYPHIMURIUM, Strain/Indicator: TA98, Metabolic Activation: NONE, Method: STANDARD PLATE
[4] = Test System: AMES SALMONELLA TYPHIMURIUM, Strain/Indicator: TA100, Metabolic Activation: NONE, Method: STANDARD PLATE
[5] = Test System: AMES SALMONELLA TYPHIMURIUM, Strain/Indicator: TA100, Metabolic Activation: RAT, LIVER, S-9, AROCLOR 1254, Method: PREINCUBATION
[6] = Test System: AMES SALMONELLA TYPHIMURIUM, Strain/Indicator: TA1535, Metabolic Activation: NONE, Method: PREINCUBATION
[7] = Test System: AMES SALMONELLA TYPHIMURIUM, Strain/Indicator: TA97, Metabolic Activation: NONE, Method: PREINCUBATION

For `CCCC(=O)Cl`, the mutagenic call (Test System: AMES SALMONELLA TYPHIMURIUM, Strain/Indicator: TA98, Metabolic Activation: HAMSTER, LIVER, S-9, AROCLOR 1254 (30%), Method: PREINCUBATION) was “inactive; negative”, the mutagenic call [1] was “inactive; negative” and the mutagenic call (Test System: AMES SALMONELLA TYPHIMURIUM, Strain/Indicator: TA98, Metabolic Activation: RAT, LIVER, S-9, AROCLOR 1254 (30%), Method: PREINCUBATION) was “inactive; negative”. For the same molecule, the mutagenic call (Test System: AMES SALMONELLA TYPHIMURIUM, Strain/Indicator: TA100, Metabolic Activation: HAMSTER, LIVER, S-9, AROCLOR 1254 (30%), Method: PREINCUBATION) was “inactive; negative”, the mutagenic call [2] was “inactive; negative” and the mutagenic call (Test System: AMES SALMONELLA TYPHIMURIUM, Strain/Indicator: TA100, Metabolic Activation: RAT, LIVER, S-9, AROCLOR 1254 (30%), Method: PREINCUBATION) was “inactive; negative”.
`ClC(Cl)=C(Cl)c1c(Cl)c(Cl)c(Cl)c(Cl)c1Cl` was tested, and the mutagenic call [3] was “inactive; negative”, the mutagenic call (Test System: AMES SALMONELLA TYPHIMURIUM, Strain/Indicator: TA98, Metabolic Activation: RAT, LIVER, S-9, AROCLOR 1254, Method: STANDARD PLATE) was “inactive; negative” and the mutagenic call [4] was “inactive; negative”. For the same molecule, the mutagenic call (Test System: AMES SALMONELLA TYPHIMURIUM, Strain/Indicator: TA100, Metabolic Activation: RAT, LIVER, S-9, AROCLOR 1254, Method: STANDARD PLATE) was “inactive; negative”.
With `[Be]=[O]` the mutagenic call [1] was “inactive; negative”, the mutagenic call (Test System: AMES SALMONELLA TYPHIMURIUM, Strain/Indicator: TA98, Metabolic Activation: RAT, LIVER, S-9 (10%), Method: PREINCUBATION) was “inactive; negative” and the mutagenic call [2] was “inactive; negative”. For the same molecule, the mutagenic call (Test System: AMES SALMONELLA TYPHIMURIUM, Strain/Indicator: TA100, Metabolic Activation: RAT, LIVER, S-9 (10%), Method: PREINCUBATION) was “inactive; negative”.
In the case of `NC[N+](=O)[O-]`, the mutagenic call [5] is reported as “inactive; negative” and the mutagenic call (Test System: AMES SALMONELLA TYPHIMURIUM, Strain/Indicator: TA1535, Metabolic Activation: RAT, LIVER, S-9, AROCLOR 1254, Method: PREINCUBATION) is reported as “inactive; negative”.
`CO` was tested, and the mutagenic call [1] was “inactive; negative”, the mutagenic call (Test System: AMES SALMONELLA TYPHIMURIUM, Strain/Indicator: TA98, Metabolic Activation: RAT, LIVER, S-9, KC 500, Method: PREINCUBATION) was “inactive; negative” and the mutagenic call [2] was “inactive; negative”. The mutagenic call (Test System: AMES SALMONELLA TYPHIMURIUM, Strain/Indicator: TA100, Metabolic Activation: RAT, LIVER, S-9, KC 500, Method: PREINCUBATION) was “inactive; negative”, the mutagenic call [6] was “inactive; negative” and the mutagenic call (Test System: AMES SALMONELLA TYPHIMURIUM, Strain/Indicator: TA1535, Metabolic Activation: RAT, LIVER, S-9, KC 500, Method: PREINCUBATION) was “inactive; negative”. For the same molecule, the mutagenic call (Test System: AMES SALMONELLA TYPHIMURIUM, Strain/Indicator: TA1537, Metabolic Activation: NONE, Method: PREINCUBATION) was “inactive; negative”, the mutagenic call (Test System: AMES SALMONELLA TYPHIMURIUM, Strain/Indicator: TA1537, Metabolic Activation: RAT, LIVER, S-9, KC 500, Method: PREINCUBATION) was “inactive; negative” and the mutagenic call (Test System: AMES SALMONELLA TYPHIMURIUM, Strain/Indicator: TA1538, Metabolic Activation: NONE, Method: PREINCUBATION) was “inactive; negative”. The mutagenic call (Test System: AMES SALMONELLA TYPHIMURIUM, Strain/Indicator: TA1538, Metabolic Activation: RAT, LIVER, S-9, KC 500, Method: PREINCUBATION) was “inactive; negative”, the mutagenic call (Test System: E. COLI, Strain/Indicator: WP2 UVRA, Metabolic Activation: NONE, Method: PREINCUBATION) was “inactive; negative” and the mutagenic call (Test System: E. COLI, Strain/Indicator: WP2 UVRA, Metabolic Activation: RAT, LIVER, S-9, KC 500, Method: PREINCUBATION) was “inactive; negative”.
For `CC1=NCCc2c1[nH]c1cc(O)ccc21`, the mutagenic call [7] was “inactive; negative”, the mutagenic call (Test System: AMES SALMONELLA TYPHIMURIUM, Strain/Indicator: TA97, Metabolic Activation: RAT, LIVER, S-9, AROCLOR 1254, Method: PREINCUBATION) was “inactive; negative” and the mutagenic call [1] was “inactive; negative”. The mutagenic call (Test System: AMES SALMONELLA TYPHIMURIUM, Strain/Indicator: TA98, Metabolic Activation: RAT, LIVER, S-9, AROCLOR 1254, Method: PREINCUBATION) was “inactive; negative”, the mutagenic call [2] was “inactive; negative” and the mutagenic call [5] was “inactive; negative”. The mutagenic call (Test System: AMES SALMONELLA TYPHIMURIUM, Strain/Indicator: TA102, Metabolic Activation: NONE, Method: PREINCUBATION) was “inactive; negative” and the mutagenic call (Test System: AMES SALMONELLA TYPHIMURIUM, Strain/Indicator: TA102, Metabolic Activation: RAT, LIVER, S-9, AROCLOR 1254, Method: PREINCUBATION) was “inactive; negative”.
With `O=[N+]([O-])c1ccc(/C=C/c2cccc(CO)n2)o1` the mutagenic call (Test System: UDS HUMAN FIBROBLASTS, Strain/Indicator: THY INCORP (NON-S-PHASE), Metabolic Activation: NONE, Method: AUTORADIOGRAPHY) was “active; positive”.
For `C1CN1c1nc(N2CC2)nc(N2CC2)n1`, the mutagenic call [3] was “active; positive”, the mutagenic call [4] was “active; positive” and the mutagenic call (Test System: CHINESE HAMSTER V-79, Strain/Indicator: V-79/6-THIOGUANINE, Metabolic Activation: NONE, Method: FLASK ASSAY) was “active; positive”. The mutagenic call (Test System: E. COLI, Strain/Indicator: WP2 (HCR), Metabolic Activation: NONE, Method: STANDARD PLATE) was “active; positive”.
With `Nc1cc([N+](=O)[O-])cc(S(=O)(=O)O)c1O` the mutagenic call (Test System: AMES SALMONELLA TYPHIMURIUM, Strain/Indicator: TA97, Metabolic Activation: HAMSTER, LIVER, S-9, AROCLOR 1254 (10%), Method: PREINCUBATION) was “inactive; negative”, the mutagenic call (Test System: AMES SALMONELLA TYPHIMURIUM, Strain/Indicator: TA97, Metabolic Activation: HAMSTER, LIVER, S-9, AROCLOR 1254 (30%), Method: PREINCUBATION) was “inactive; negative” and the mutagenic call [7] was “inactive; negative”. For the same molecule, the mutagenic call (Test System: AMES SALMONELLA TYPHIMURIUM, Strain/Indicator: TA97, Metabolic Activation: RAT, LIVER, S-9, AROCLOR 1254 (10 OR 30%), Method: PREINCUBATION) was “inactive; negative”, the mutagenic call (Test System: AMES SALMONELLA TYPHIMURIUM, Strain/Indicator: TA98, Metabolic Activation: HAMSTER, LIVER, S-9, AROCLOR 1254 (10 OR 30%), Method: PREINCUBATION) was “inactive; negative” and the mutagenic call [1] was “inactive; negative”. The mutagenic call (Test System: AMES SALMONELLA TYPHIMURIUM, Strain/Indicator: TA98, Metabolic Activation: RAT, LIVER, S-9, AROCLOR 1254 (10 OR 30%), Method: PREINCUBATION) was “inactive; negative”, the mutagenic call (Test System: AMES SALMONELLA TYPHIMURIUM, Strain/Indicator: TA100, Metabolic Activation: HAMSTER, LIVER, S-9, AROCLOR 1254 (10 OR 30%), Method: PREINCUBATION) was “inactive; negative” and the mutagenic call [2] was “inactive; negative”. The mutagenic call (Test System: AMES SALMONELLA TYPHIMURIUM, Strain/Indicator: TA100, Metabolic Activation: RAT, LIVER, S-9, AROCLOR 1254 (10 OR 30%), Method: PREINCUBATION) was “inactive; negative”, the mutagenic call (Test System: AMES SALMONELLA TYPHIMURIUM, Strain/Indicator: TA1535, Metabolic Activation: HAMSTER, LIVER, S-9, AROCLOR 1254 (10 OR 30%), Method: PREINCUBATION) was “inactive; negative” and the mutagenic call [6] was “inactive; negative”. The mutagenic call (Test System: AMES SALMONELLA TYPHIMURIUM, Strain/Indicator: TA1535, Metabolic Activation: RAT, LIVER, S-9, AROCLOR 1254 (10%), Method: PREINCUBATION) was “inactive; negative”.
`c1ccc(CSSCc2ccccc2)cc1` was tested, and the mutagenic call (Test System: AMES SALMONELLA TYPHIMURIUM, Strain/Indicator: TA97, Metabolic Activation: NONE, Method: STANDARD PLATE) was “inactive; negative”, the mutagenic call (Test System: AMES SALMONELLA TYPHIMURIUM, Strain/Indicator: TA97, Metabolic Activation: S-9, Method: STANDARD PLATE) was “inactive; negative” and the mutagenic call [3] was “inactive; negative”. For the same molecule, the mutagenic call (Test System: AMES SALMONELLA TYPHIMURIUM, Strain/Indicator: TA98, Metabolic Activation: S-9, Method: STANDARD PLATE) was “inactive; negative”, the mutagenic call [4] was “inactive; negative” and the mutagenic call (Test System: AMES SALMONELLA TYPHIMURIUM, Strain/Indicator: TA100, Metabolic Activation: S-9, Method: STANDARD PLATE) was “inactive; negative”. For the same molecule, the mutagenic call (Test System: AMES SALMONELLA TYPHIMURIUM, Strain/Indicator: TA102, Metabolic Activation: NONE, Method: STANDARD PLATE) was “active; positive” and the mutagenic call (Test System: AMES SALMONELLA TYPHIMURIUM, Strain/Indicator: TA102, Metabolic Activation: S-9, Method: STANDARD PLATE) was “active; positive”.
